Data as given in US20200289521A1, “USE OF VITAMIN K IN COMBINATION WITH ANTICOAGULANTS” (KAYDENCE PHARMA AS, priority 2019, published 2020).

How the values were obtained:
[1] = test system: VSMCs; experiment: ATP increase in VSMCs, 48 hours, with CoCl2 arm (luminescence); assay type: cell-based
Protocol: This study was performed to further investigate the origin of ATP production that is influenced by vitamin K2 (MK-7). To perform this study, VSCMs (5000 cells/well) were plated in 96-well plates and left to adhere overnight. Next, cells were incubated for 48 hours with either vehicle, CoCl2 (100 μM), vitamin K2 (MK-7) (10 μM), or UQ10 (10 μM). Hoechst was added to correct for cell number (1 μg/mL). Next, ATP was measured using mammalian lysis buffer for 5 minutes, after which 50 μL ATP substrate solution was added to the wells and incubated for 10 minutes in a dark environment. Finally, medium was transferred to a white plate to measure luminescence.

[2] = test system: VSMCs; experiment: Hypoxia (CoCl2) induced oxidative stress in VSMCs (DCFDA); assay type: cell-based
Protocol: This study was performed to determine whether intracellular oxidative stress in VSCMs is derived from mitochondrial dysfunction. To perform this study, VSMCs were incubated with cobalt chloride, a known stabilizer of HIF1a. Cobalt chloride binding to HIF1a prevents the degradation of HIF1a and thus results in a cellular hypoxia state. HIF1a has been implicated in cancer biology as well as a number of other pathophysiologies, specifically in areas of vascularization and angiogenesis, energy metabolism, cell survival, and tumor invasion. Under normal circumstances, after injury, HIF1a is degraded by the enzyme prolyl hydroxylase (PHD). The continued up-regulation of HIF1a (mimicked by cobalt chloride) promotes tumor growth and metastasis through its role in initiating angiogenesis and regulating cellular metabolism to overcome hypoxia. Hypoxia promotes apoptosis in both normal and tumor cells. Additionally, hypoxia generates significant intracellular oxidative stress.
To perform the study, VSMCs (10,000 cells/well) were plated in a 96-well plate and left to adhere overnight. Next, the medium was changed to a medium supplemented with 50 μM CoCl2 for 19 hours. The next day, cells were washed and incubated for 1 hour with 20 μM DCFDA in the presence of a vehicle (solvent for CoCl2 and vitamin K2 (MK-7)/UQ10), 10 μM vitamin K2 (MK-7), or 10 μM UQ10 in medium. The medium was then changed to a medium supplemented with vehicle, vitamin K2 (MK-7)/UQ10, or CoCl2, and fluorescent was measured for 6 hours. Fluorescence intensity was normalized for cell count.

[3] = test system: whole-blood thrombogenicity; experiment: T-TAS Total Thrombus-formation Analysis of whole blood from treated Sprague-Dawley rats; assay type: in vivo; conditions: for AUC: area under flow pressure curve for 30 min, dabigatran 7.5, rivaroxaban 5.0, MK-7 1.5 mg/kg/day; for AUC / OT (time, min) / T10 (time, min): two weeks in diet; for OT (time, min) / T10 (time, min): dabigatran 7.5, rivaroxaban 5.0, vitamin K2 (MK-7) 1.5 mg/kg/day
Protocol: (§1) This experiment was conducted in order to evaluate the effects of vitamin K2 (MK-7) on the anticoagulant activity of the new oral anticoagulants (NOAC) rivaroxaban and dabigatran using the T-TAS Total Thrombus-formation Analysis System. The T-TAS Total Thrombus-formation Analysis System is a microchip-based flow chamber system capable of evaluating whole-blood thrombogenicity. It is a useful tool in monitoring the efficacy of anticoagulants on thrombus formation and predicting the risk of bleeding complications. To perform the study, 45 wild-type male Sprague-Dawley and 45 transgenic male Ren-2 rats [TGR(mREN-2)27] at the age of 10-11 weeks at the beginning of the treatment period were purchased from animal facility IKEM-CEM Institute of Clinical and Experimental Medicine (Prague, Czech Republic). All animals in the experiment were housed in individually ventilated cages (2-3 rats per cage) and kept in the animal rooms of JCET at a relative humidity of 55±10%, a temperature of 22±2° C., and a light cycle of 7 AM to 7 PM. The rats had free access to food and water. After delivery, animals were randomly divided into 10 experimental groups (5 or 10 rats per group), as indicated below in Table 1. Four days before the start of the treatment, the first part of animals' body weight and food intake was measured in selected representative three cages (rats n=9) to calculate the appropriate amount of tested compounds required for addition to the diet to obtain the dosing indicated in Table 1. It was estimated that food intake was approximately 30 g of chow per rat per day. The animals were fed for two weeks with AIN-93G diet supplemented with rivaroxaban or dabigatran with/without Vitamin K2 (MK-7), as indicated in Table 1. The animals were then anesthetized in order to draw blood samples for further analysis. The body mass of the rats was measured at the beginning and at the end of treatment. At the beginning and at the end of treatment, the food intake per day was measured in representative group of animals to monitor the daily dosing of tested compounds (per kg of body mass). The thrombus formation in vitro was measured in whole blood using a microchip-based flow chamber system according to manufacturers' protocol (Total Thrombus-formation Analyser System, T-TAS; Fujimori Kogyo Co., Ltd., Tokyo, Japan). For the analysis, citrated whole blood (480 μl) was mixed with 20 μl of 300 mM CaCl2 solution containing 1.25 mg/ml CTI (Corn Trypsin Inhibitor). […] The obtained flow pressure pattern for each sample was used to analyze thrombus formation based on the following estimated parameters: […]

[4] = test system: whole-blood thrombogenicity; experiment: T-TAS Total Thrombus-formation Analysis of whole blood from treated TGR rats; assay type: in vivo, transgenic Ren-2 rats [TGR(mREN-2)27]; conditions: for AUC: area under flow pressure curve for 30 min, dabigatran 7.5, rivaroxaban 5.0, MK-7 1.5 mg/kg/day; for AUC / OT (time, min) / T10 (time, min): two weeks in diet; for OT (time, min) / T10 (time, min): dabigatran 7.5, rivaroxaban 5.0, vitamin K2 (MK-7) 1.5 mg/kg/day
Protocol: as §1

[5] = test system: VSMCs; experiment: ATP increase in VSMCs, 24 hours (luminescence); assay type: cell-based; conditions: 10 μM
Protocol: This study was performed to determine if vitamin K2 (MK-7) affects ATP generation. ATP is generated via glycolysis in the cytoplasm and via both the Krebs-cycle and oxidative phosphorylation in the mitochondria. ATP generation via glycolysis delivers only 2 ATP, whereas ATP generation in the mitochondria generates some 32 ATP.
To perform this study, VSCMs (5000 cells/well) were plated in 96-well plates and left to adhere overnight. Next, cells were incubated for 24 hours with either vehicle, vitamin K2 (MK-7) (10 μM), or UQ10 (10 μM). Hoechst was added to correct for cell number (1 μg/mL). Next, ATP was measured using mammalian lysis buffer for 5 minutes after which 50 μL ATP substrate solution was added to the wells and incubated for 10 minutes in a dark environment. Finally, the medium was transferred to a white plate to measure luminescence

[6] = test system: human vascular smooth muscle cells (hVSMCs); experiment: ATP measurement in hVSMCs with warfarin and/or vitamin K2 (luminescence); assay type: cell-based; conditions: 24 hours; warfarin 10 or 50 μM, vitamin K2 (MK-7) 10 μM
Protocol: This study was performed in order to determine the effect of vitamin K2 (MK-7) on warfarin-induced oxidative stress in muscles. To perform this study, human vascular smooth muscle cells (hVSMCs; 5,000 cells/well) were plated in 96-well dark plates and left to adhere overnight. Next, cells were incubated for 24 hours with either vehicle only (as blank control), warfarin (10 or 50 μM), vitamin K2 (MK-7) (10 μM), or a combination of warfarin (50 μM) and vitamin K2 (MK-7) (10 μM). Hoechst was added to correct for cell number (1 μg/mL). Next, ATP was measured using mammalian lysis buffer for 5 minutes after which 50 μL ATP substrate solution was added to the wells and incubated for 10 minutes in a dark environment. Finally, medium was transferred to a white plate to measure luminescence.

[7] = test system: VSMCs; experiment: Warfarin-induced oxidative stress in VSMCs, warfarin concentration series (DCFDA); assay type: cell-based; conditions: warfarin 10 to 100 μM, fluorescence over 6 hours
Protocol: It is known that the level of reactive oxygen species in cells can be measured by measuring the conversion of 2′,7′-dichlorofluorescein diacetate (DCFDA) to the fluorescent dye 2′,7′-dichlorofluorescein (DCF). The fluorescence generated by cells subjected to DCFDA is directly proportional to the amount of oxidized DCFDA to DCF.
In this study, vitamin K metabolism was blocked using the vitamin K-antagonist warfarin. The study was conducted to investigate whether interference with vitamin K metabolism would cause intracellular oxidative stress. To perform the study, VSMCs (10,000 cells/well) were plated in 96-well plates and left to adhere overnight. Next, cells were incubated for 1 hour with 20 μM DCFDA. The medium was then changed to a medium supplemented with different concentrations of warfarin ranging from 10 to 100 μM, and fluorescence intensity was measured over 6 hours. Fluorescence was normalized for number of cells.

Row | Structure (SMILES) | AUC [3] | OT (time, min) [3] | T10 (time, min) [3] | AUC [4] | OT (time, min) [4] | T10 (time, min) [4] | also measured
1 | [Cl][Co][Cl] [CoCl2, cobalt chloride] | – | – | – | – | – | – | ATP production compared to vehicle ([1]; CoCl2 100 μM, vitamin K2 (MK-7) 10 μM): decreased ATP production; oxidative stress induced by the hypoxia inducer ([2]; 50 μM CoCl2): induces increased oxidative stress
2 | [H]/N=C(/N)c1ccc(NCc2nc3cc(C(=O)N(CCC(=O)O)c4ccccn4)ccc3n2C)cc1 [Dabigatran] | 2039 ± 32.5 | 5.753 ± 0.587 min | 3.386 ± 0.237 min | 1898 ± 80.66 | 8.011 ± 1.317 min | 4.780 ± 0.7073 min | –
3 | O=C(NC[C@H]1CN(c2ccc(N3CCOCC3=O)cc2)C(=O)O1)c1ccc(Cl)s1 [Rivaroxaban] | 2011 ± 28.7 | 6.133 ± 0.518 min | 3.732 ± 0.266 min | 1876 ± 91.28 | 8.324 ± 1.578 min | 4.996 ± 0.8216 min | thrombus formation ([3]; anticoagulant alone): inhibited thrombus formation; thrombus formation ([4]; anticoagulant alone): also inhibited thrombus formation
4 | COC1=C(OC)C(=O)C(C/C=C(\C)CC/C=C(\C)CC/C=C(\C)CC/C=C(\C)CC/C=C(\C)CC/C=C(\C)CC/C=C(\C)CC/C=C(\C)CC/C=C(\C)CCC=C(C)C)=C(C)C1=O [UQ10] | – | – | – | – | – | – | ATP production compared to the vehicle [5]: only vitamin K2 (MK-7) increased ATP production; ATP levels compared to CoCl2 ([1]; 10 μM vs CoCl2 100 μM): significant higher ATP levels; hypoxia induced oxidative stress ([2]; 50 μM CoCl2 for 19 hours, test substance 10 μM, 6 hours): This effect was not found
5 | CC(=O)CC(c1ccccc1)c1c(O)c2ccccc2oc1=O (stereo not drawn) [warfarin] | – | – | – | – | – | – | cell ATP / ATP generation [6]: does not affect ATP generation; intracellular oxidative stress [7]: did cause intracellular oxidative stress
